Among the data in patent US20200216416A1, “QUINOLINE COMPOUNDS AS INHIBITORS OF TAM AND MET KINASES” (Array BioPharma Inc., priority 2019, published 2020) are IC50 values, retold here.

pIC50: −log10 of the molar value.

Assay [1] addresses T1, GST-tagged recombinant human TYRO3 kinase domain (Homo sapiens, UniProt Q06418).
T1 construct: GST-tagged recombinant human TYRO3 kinase domain; purchased Carna PR7480A
T1 sequence (Q06418 518-790 limits assumed): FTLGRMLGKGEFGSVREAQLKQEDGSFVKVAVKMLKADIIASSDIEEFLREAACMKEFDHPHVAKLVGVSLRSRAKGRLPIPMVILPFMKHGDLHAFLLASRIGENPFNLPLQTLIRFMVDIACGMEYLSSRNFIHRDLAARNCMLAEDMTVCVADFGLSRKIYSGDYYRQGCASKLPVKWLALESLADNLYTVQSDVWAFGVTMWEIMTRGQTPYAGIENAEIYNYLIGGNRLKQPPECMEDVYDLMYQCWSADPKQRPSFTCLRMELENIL
Kind of assay: TYRO3 Enzyme Assay (LanthaScreen Eu Kinase Binding). The note with it: averaged IC50; TYRO3 5 nM; 60-minute incubation at 22° C.; TR-FRET. As to the method:
Compounds disclosed herein were screened for their ability to inhibit TYRO3 kinase using Invitrogen's LanthaScreenTM Eu Kinase Binding technology. GST-tagged recombinant human TYRO3 kinase domain from Carna (5 nM; Cat. No. P[…]) was incubated with 20 nM Alexa-Fluor® Tracer 236 (P[…]) and 2 nM Europium-anti-GST (Cat. No. A15116) along with test compound in a buffer consisting of 25 mM HEPES, pH 7.4, 10 mM MgCl2, 0.01% Triton X-100, and 2% DMSO. Compounds are typically prepared in a threefold serial dilution in DMSO and added to the assay to give the appropriate final concentration. After a 60-minute incubation at 22° C., the reaction was measured using a PerkinElmer EnVision multimode plate reader via TR-FRET dual wavelength detection, and the percent of control (POC) calculated using a ratiometric emission factor. […] The POC values were fit to a 4 parameter logistic curve and the IC50 value is point where the curve crosses 50 POC.

Assay [2] addresses T2, human MET kinase del Ex14 (Homo sapiens, UniProt P08581, DEL963-1009).
T2 construct: GST-tagged recombinant human MET kinase domain; purchased Signal Chem
Description: c-Met Enzyme Assay, del Ex14 mutant. As to conditions: averaged IC50; del Ex14 5 nM; 60-minute incubation at 22° C.; read-out: Del14 IC50. It is filed as binding. As to the method:
The affinity of compound binding to wild type and mutant human MET kinases was measured using Invitrogen's LanthaScreen™ Eu Kinase Binding technology. Briefly, GST-tagged recombinant human MET kinase domain from Signal Chem (see Table 8 below for concentration in assay) was incubated with 50 nM Alexa-Fluor® Tracer 236 (Invitrogen Cat No. PR9078A) and 2 nM Europium-anti-GST (Invitrogen Cat. No. A15116) along with test compound in a buffer consisting of 25 mM HEPES, pH 7.4, 10 mM MgCl2, 0.01% Triton X-100, 1mM DTT, and 2% DMSO. Compounds were typically prepared in a three-fold serial dilution in DMSO and added to the assay to give the appropriate final concentration. After a 60-minute incubation at 22° C., the reaction was measured using a PerkinElmer EnVision multimode plate reader via TR-FRET dual wavelength detection, and the percent of control (POC) calculated using a ratiometric emission factor. […] The POC values were fit to a 4 parameter logistic curve and the IC50 value is point where the curve crosses 50 POC.

T2 sequence (P08581 with tags, fused parts or gaps DEL963-1009 limits assumed): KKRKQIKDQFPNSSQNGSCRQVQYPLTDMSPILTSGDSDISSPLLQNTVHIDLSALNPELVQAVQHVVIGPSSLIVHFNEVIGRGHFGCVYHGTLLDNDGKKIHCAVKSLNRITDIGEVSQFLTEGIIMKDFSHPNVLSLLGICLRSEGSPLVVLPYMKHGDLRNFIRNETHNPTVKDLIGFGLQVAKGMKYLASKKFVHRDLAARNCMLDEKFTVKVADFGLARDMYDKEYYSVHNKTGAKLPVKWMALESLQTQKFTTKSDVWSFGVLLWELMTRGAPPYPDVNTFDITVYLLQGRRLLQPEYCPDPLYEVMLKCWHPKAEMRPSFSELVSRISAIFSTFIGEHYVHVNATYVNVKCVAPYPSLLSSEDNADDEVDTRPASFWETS

For orientation: pIC50 means the negative decadic logarithm of the IC50, by convention in mol/L. In the case of `COc1cc2ncc(C#N)c(Oc3ccc(NC(=O)c4cn(C(C)C)cc(-c5ccc(F)cc5)c4=O)nc3)c2cc1OC` [Example 57, N-(5-((3-cyano-6,7-dimethoxyquinolin-4-yl)oxy)pyridin-2-yl)-5-(4-fluorophenyl)-1-isopropyl-4-oxo-1,4-dihydropyridine-3-carboxamide], the results for the pIC50 in assay [1] and in assay [2] were 6.59 and 6.52, respectively.

Turning to `CCCn1cc(C(=O)Nc2ccc(Oc3ccnc4cc(OC)c(OC)cc34)cn2)c(=O)c(-c2ccc(F)cc2)c1` [Example 10, N-(5((6,7-dimethoxyquinolin-4-yl)oxy)pyridin-2-yl)-5-(4-fluorophenyl)-4-oxo-1-propyl-1,4-dihydropyridine-3-carboxamide], the results for the pIC50 in assay [1] and in assay [2] were 7.82 and 8.46, respectively.

Take `CCOc1ccc2nccc(Oc3ccc(NC(=O)c4cn(C(C)C)cc(-c5ccc(F)cc5)c4=O)nc3)c2c1` [Example 51, N-(5-((6-ethoxyquinolin-4-yl)oxy)pyridin-2-yl)-5-(4-fluorophenyl)-1-isopropyl-4-oxo-1,4-dihydropyridine-3-carboxamide]: the pIC50 is 6.95 in assay [1] and 7.53 in assay [2].

`COc1cc2nccc(Oc3ccc(NC(=O)c4cn(C(C)C)cc(-c5ccc(F)cc5Cl)c4=O)nc3)c2cc1OC` [Example 18, 5-(2-chloro-4-fluorophenyl)-N-(5-((6,7-dimethoxyquinolin-4-yl)oxy)pyridin-2-yl)-1-isopropyl-4-oxo-1,4-dihydropyridine-3-carboxamide]: the pIC50 in assay [1] is 8.40; in assay [2], 8.49.

With `CCCC(CCC)n1cc(C(=O)Nc2ccc(Oc3ccnc4cc(OC)c(OC)cc34)cn2)c(=O)c(-c2ccc(F)cc2F)c1` [Example 17, 5-(2,4-difluorophenyl)-N-(5-((6,7-dimethoxyquinolin-4yl)oxy)pyridin-2-yl)-1-(heptan-4-yl)-4-oxo-1,4-dihydropyridine-3-carboxamide], the negative-log IC50 (pIC50) was 7.12 in assay [1] and 7.77 in assay [2].

For the molecule `COc1ccc2nccc(Oc3ccc(NC(=O)c4cn(CCN(C)C)cc(-c5ccc(F)cc5)c4=O)nc3)c2c1` [Example 47], the pIC50 in assay [1] was 7.25; in assay [2], 7.84.

Take `COc1cc2nccc(Oc3ccc(NC(=O)c4cn(C(C)C)cc(-c5ccc(F)cc5)c4=O)nc3)c2cc1OC` [Example 1]: the negative-log IC50 (pIC50) is 8.30 in assay [1] and 8.59 in assay [2].

On to `COc1cc2nccc(Oc3cnc(NC(=O)c4cn(C(C)C)cc(-c5ccc(F)cc5)c4=O)nc3)c2cc1OC` [Example 54, N-(5-((6,7-dimethoxyquinolin-4-yl)oxy)pyrimidin-2-yl)-5-(4-fluorophenyl)-1-isopropyl-4-oxo-1,4-dihydropyridine-3-carboxamide], for which the results for the negative-log IC50 (pIC50) in assay [1] and in assay [2] were 7.68 and 8.42, respectively.

Take `COc1cc2nccc(Oc3ccc(NC(=O)c4cn(CCC(C)C)cc(-c5ccc(Cl)cc5)c4=O)nc3)c2cc1OC` [Example 37]: the pIC50 is 7.52 in assay [1] and 7.91 in assay [2].

Take `COc1cc2nccc(Oc3cnc(NC(=O)c4cn(C(C)C)c(C)c(-c5ccc(F)cc5)c4=O)nc3)c2cc1OC` [Example 55, N-(5-((6,7-dimethoxyquinolin-4-yl)oxy)pyrimidin-2-yl)-5-(4-fluorophenyl)-1-isopropyl-6-methyl-4-oxo-1,4-dihydropyridine-3-carboxamide]: the values for the negative-log IC50 (pIC50) in assay [1] and in assay [2] were 8.10 and 8.51, respectively.

On to `COc1cc2nccc(Oc3ccc(NC(=O)c4cn(CC(=O)N(C)C)cc(-c5ccc(F)cc5F)c4=O)nc3)c2cc1OC` [Example 13, 5-(2,4-difluorophenyl)-N-(5((6,7-dimethoxyquinolin-4-yl)oxy)pyridin-2-yl)-1-(2-(dimethylamino)-2-oxoethyl)-4-oxo-1,4-dihydropyridine-3-carboxamide], for which the pIC50 in assay [1] is 7.66; in assay [2] it was 8.31.

With `COc1ccc(-c2cn(C(C)C)cc(C(=O)Nc3ccc(Oc4ccnc5cc(OC)c(OC)cc45)cn3)c2=O)cc1` [Example 30, N-(5-((6,7-dimethoxyquinolin-4yl)oxy)pyridin-2-yl)-1-isopropyl-5-(4-methoxyphenyl)-4-oxo-1,4-dihydropyridine-3-carboxamide], the negative-log IC50 (pIC50) was 7.70 in assay [1] and 7.30 in assay [2].

Regarding `CCn1cc(C(=O)Nc2ccc(Oc3ccnc4cc(OC)c(OC)cc34)cn2)c(=O)c(-c2ccc(F)cc2)c1` [Example 3], the pIC50 in assay [1] was 8.30; in assay [2] it was 8.52.

Turning to `COc1cc2nccc(Oc3ccc(NC(=O)c4cn(CC(=O)N(C)C)cc(-c5ccc(F)cc5)c4=O)nc3)c2cc1OC` [Example 23, N-(5-((6,7-dimethoxyquinolin-4yl)oxy)pyridin-2-yl)-1-(2-(dimethylamino)-2-oxoethyl)-5-(4-fluorophenyl)-4-oxo-1,4-dihydropyridine-3-carboxamide], the negative-log IC50 (pIC50) was 7.85 in assay [1] and 8.54 in assay [2].

Turning to `COc1cc2nccc(Oc3ccc(NC(=O)c4cn(CCC(C)C)cc(-c5ccc(F)cc5)c4=O)nc3)c2cc1OC` [Example 34, N-(5-((6,7-dimethoxyquinolin-4yl)oxy)pyridin-2-yl)-5-(4-fluorophenyl)-1-isopentyl-4-oxo-1,4-dihydropyridine-3-carboxamide], the pIC50 in assay [1] is 7.85; in assay [2], 8.24.

Consider `COc1cc2nccc(Oc3ccc(NC(=O)c4cn(CCN(C)C)cc(-c5ccc(F)cc5)c4=O)nc3)c2cc1OC` [Example 46], for which the pIC50 in assay [1] was 8.30; in assay [2] it was 8.55.

For the molecule `COc1cc2nccc(Oc3ccc(NC(=O)c4cn(CC(=O)N(C)C)cc(-c5ccc(F)c(F)c5)c4=O)nc3)c2cc1OC` [Example 24, 5-(3,4-difluorophenyl)-N-(5-((6,7-dimethoxyquinolin-4-yl)oxy)pyridin-2-yl)-1-(2-(dimethylamino)-2-oxoethyl)-4-oxo-1,4-dihydropyridine-3-carboxamide], the pIC50 was 7.27 in assay [1] and 7.98 in assay [2].

In the case of `COc1cc2nccc(Oc3ccc(NC(=O)c4cn(CCN(C)C)cc(-c5ccc(F)c(F)c5)c4=O)nc3)c2cc1OC` [Example 43, 5-(3,4-difluorophenyl)-N-(5-((6,7-dimethoxyquinolin-4-yl)oxy)pyridin-2-yl)-1-], the pIC50 is 7.96 in assay [1] and 8.60 in assay [2].

For `COc1cc2nccc(Oc3ccc(NC(=O)c4cn(CCC(C)C)cc(-c5ccc(F)cc5F)c4=O)nc3)c2cc1OC` [Example 36, 5-(2,4-difluorophenyl)-N-(5-((6,7-dimethoxyquinolin-4yl)oxy)pyridin-2-yl)-1-isopentyl-4-oxo-1,4-dihydropyridine-3-carboxamide], the negative logarithm of the IC50 (pIC50) in assay [1] was 7.85; in assay [2], 8.62.

Consider `COc1cc2nccc(Oc3ccc(NC(=O)c4cn(CCN(C)C)cc(-c5ccc(F)cc5F)c4=O)nc3)c2cc1OC` [Example 44, 5-(2,4-difluorophenyl)-N-(5-((6,7-dimethoxyquinolin-4-yl)oxy)pyridin-2-yl)-1-(2-(dimethylamino)ethyl)-4-oxo-1,4-dihydropyridine-3-carboxamide], for which the negative logarithm of the IC50 (pIC50) was 8.40 in assay [1] and 8.68 in assay [2].

In the case of `COc1cc2c(Oc3ccc(NC(=O)c4cn(C(C)C)cc(-c5ccc(F)cc5)c4=O)nc3)ccnc2cc1OCCCN1CCOCC1` [Example 56, 5-(4-fluorophenyl)-1-isopropyl-N-(5-((6-methoxy-7-(3-morpholinopropoxy)quinolin-4-yl)oxy)pyridin-2-yl)-4-oxo-1,4-dihydropyridine-3-carboxamide], the results for the negative-log IC50 (pIC50) in assay [1] and in assay [2] were 8.00 and 8.35, respectively.

`CCn1cc(C(=O)Nc2ccc(Oc3ccnc4ccc(OC)cc34)cn2)c(=O)c(-c2ccc(F)cc2)c1` [Example 39, 1-ethyl-5-(4-fluorophenyl)-N-(5-((6-methoxyquinolin-4-yl)oxy)pyridin-2-yl)-4-oxo-1,4-dihydropyridine-3-carboxamide]: the pIC50 in assay [1] is 7.08; in assay [2] it was 7.59.

As to `CNC(=O)Cn1cc(C(=O)Nc2ccc(Oc3ccnc4cc(OC)c(OC)cc34)cn2)c(=O)c(-c2ccc(F)cc2)c1` [Example 22], the pIC50 is 7.85 in assay [1] and 8.51 in assay [2].
